For one experiment, the target named is T1, syntrophin PDZ domain (Mus musculus, UniProt Q61234).
T1 construct: syn PDZ1; made in house; host or cells: E. coli BL-21 Rosetta (DE3)pLysS, pMAL-c5X vector
T1 sequence (Q61234 77-171): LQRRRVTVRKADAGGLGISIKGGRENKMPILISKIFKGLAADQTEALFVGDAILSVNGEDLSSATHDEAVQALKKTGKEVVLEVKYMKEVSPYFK
Put plainly: Fluorescence anisotropy PDZ-ligand binding, syntrophin, direct and competition. Details: key to Syn Kd (μM), PDZ affinity (Kp): nb indicates no binding. The following applies: for Kd: read-out: Syn Kd (μM), PDZ affinity (Kp). The protocol:
(§1) Probes were generated by annealing an unlabeled top oligo to a labeled bottom oligo in a 2:1 ratio, while binding competitor oligos were generated using unlabeled top and bottom oligos mixed at equimolar ratios. For PDZ binding experiments, fluorescein-labeled peptide probe (ordered from Selleckhem) used for PDZ binding measurements contained the sequence VKESLV* (SEQ ID NO: 6), where the N-terminus was labeled with a FITC conjugate. Probe concentration was assessed by measuring Abs490. Competitor peptides were purified as MBP-ZF43-8 fusions (see e.g., FIG. 5A-FIG. 5B, FIG. 7A-FIG. 7B).
(§2) All assays were conducted in 20 mM Tris, pH 7.5, 100 mM […], 50 μM ZnCl2 buffer at 25° C. Proteins, probes, and competitor oligos were added to a final volume of 300 μL. Probes were used at 10 nM in all experiments. For complex assembly experiments (FIG. 1C), indicated concentrations of MBP-ZF43-8 harboring a VSKESLV* ligand (SEQ ID NO: 120) (see e.g., FIG. 5A-FIG. 5B, FIG. 7A-FIG. 7B) were titrated against 5 μM concentrations of clamp. Mixtures were allowed to equilibrate at 25° C. for 10 min in Costar black 96-well plates prior to reading. Fluorescence anisotropy (FA) measurements were made at 494 nm using a SpectraMax M5 (Molecular Devices) fluorescence plate reader. For all measurements, anisotropy (r) was calculated using the following equation, wherein I∥ and I⊥ are parallel and perpendicular fluorescence, respectively:
(§3) Fraction of bound probe was calculated using the following equation, wherein rbound and rfree are the anisotropy values for fully bound and fully unbound probe, respectively:
(§4) Each of these values was measured independently of binding curves with either a 100× excess or absence of ZF (in the case of ZF-oligo binding) or PDZ (in the case of PDZ-ligand binding). Q is the ratio of total fluorescence (measured at 454 nm) under rbound and rfree conditions. To obtain binding constants for ZF-probe and PDZ-probe interactions, binding data were fit to the following quadratic equation, wherein [P] is the total concentration of either ZF or PDZ, [probe] is the total concentration of the oligo or peptide probe, and Kd is the dissociation constant of the interaction:
(§5) Competition binding curves were calculated by fitting competition binding curves to the following cubic equation, wherein fb is fraction probe bound, [L*T] is the total probe concentration, [RT] and [R] are total and free concentrations of the ZF, respectively, while [LT] and [L] are total and free concentrations of competitor. Kd1 is the affinity for TF and probe, while Kd2 is the affinity between TF and competitor:
(§6) As a first step toward construction of a molecular assembly scheme amenable to modeling, a set of part variants was identified comprising a range of Kt and Kp values, and then in vitro binding experiments were conducted to directly measure their binding affinities (see e.g., FIG. 6, FIG. 7A, FIG. 7B). […] For each ZF, previously described R-to-A ZF backbone mutations were used as affinity variants (see e.g., Khalil et al., Cell. 150, 647-658 2012). DBM affinity series (DBM1, DBM2, etc.) for both ZFs by were also generated by systematically mutating nucleotides both in the core and directly flanking the core 9-bp recognition sequence (ZF 1: a[…]c (SEQ ID NO: 99); ZF2: a[…]c (SEQ ID NO: 102)). Similarly, PDZ-ligand affinities were measured for two domains (syntrophin ‘syn’ and erbin ‘erb’) and their respective partner ligands. For each pair, ligands of various affinities were obtained from published reports (S1, S2, . . .; E1, E2, . . . )12, 13 (see e.g., FIG. 7A, FIG. 7B). Altogether, this yielded a set of component interactions consisting of 15 ZF-DNA and 13 PDZ-ligand pairs with in vitro-measured values ranging from mid μM to low nM, permitting broad, tunable control of Kt and Kp.
(§7) PDZ-ligand binding constants were measured in vitro by fluorescence anisotropy. Recombinant proteins were purified as described herein. […]
On the technique in general: Polarisation of emitted light reports the rotation of a fluorescent probe.

Another experiment deals with T2, erbin PDZ domain (Homo sapiens, UniProt Q96RT1, V1340R).
T2 construct: made in house; host or cells: E. coli BL-21 Rosetta (DE3)pLysS, pMAL-c5X vector
Nature of the experiment: Fluorescence anisotropy PDZ-ligand competition binding, erbin. To be noted: for Kd: read-out: Erb Kd (μM), PDZ affinity (Kp). Details: key to Erb Kd (μM), PDZ affinity (Kp): nb indicates no binding. As to the method: as §1, §2, §3, §4, §5, §6, §7

Experiment [1] has as its system HEK293FT reporter cell line. Nature of the experiment: Clamp assembly-mediated transcriptional activation, mCherry reporter by flow cytometry. It counts as cell-based. To be noted: transfected into HEK293FT reporter line, 4 tandem DBMs, pMinCMV. An excerpt: In the work in yeast, clamp-dependent assembly was initially based on the ability of a zinc finger-based synthetic transcription factor (synTF) and clamp to induce higher reporter activation when co-expressed. To test the possibility that assembly-mediated gene expression also works in mammalian cells, a similar approach was taken. Expression plasmids were generated for synTF (sequence descriptions in Example 7) and a 2-unit (nc=2) clamp (sequence description in Example 7), both driven by a strong UBC promoter (pUBC, Ubiquitin C promoter). A corresponding HEK293FT reporter cell line was generated by lentiviral transduction of a synTF-responsive reporter construct, composed of 4 tandem 20-bp DNA-binding motifs (DBMs) upstream of a minimal CMV promoter (pMinCMV) driving expression of an mCherry fluorescent protein.
Different combinations of the synTF and clamp expression plasmids were transfected into the HEK293FT reporter line, and mCherry reporter expression was assayed using flow cytometry (see e.g., FIG. 19).
On the technique in general: A flow cytometer gives signals particle by particle.

For experiment [2], the system named is DBM oligo probe (FITC labeled). Nature of the experiment: In vitro complex assembly: synTF titration of DBM oligo probe with or without clamp (fluorescence anisotropy). It counts as binding.
Excerpt: FIG. 1A-FIG. 1E is a series of graphs and schematics showing the design scheme for assembly-mediated regulatory control of synthetic gene circuits. (FIG. 1A) Nodes in cellular networks use one-to-one regulatory interactions to execute simple computation-al tasks (top); cooperative interactions within multivalent assemblies enable complex, non-linear signal processing (bottom). (FIG. 1B) Design of synthetic TF regulatory assemblies. Complexes are built from interaction domains (ZF and PDZ) and their respective binding partners (DBM and PDZ ligand). Clamp-mediated synTF complex-formation (TA, transcriptional activator domain drives coding sequence transcription). Interaction affinities (Kt and Kp) and the number of repeated complex units (nc) determine thermodynamics of assembly. (FIG. 1C) In vitro assembly of purified cooperative complex components. Fluorescence anisotropy for synTF titration of DBM oligo probe ([…]) and converted to fraction probe bound (Nb, synTFs with binding-deficient PDZ ligand mutants; nc, number of PDZ domains per clamp and DBMs probe). Points represent mean values for three measurements±SE. (FIG. 1D) Testing in vivo complex assembly in yeast using a synthetic gene circuit (GFP output). All genes are chromosomally-integrated (left; see e.g., Table 4). Small molecule-inducible expression systems (ncTET and ncZEV) control intracellular expression levels (see e.g., FIG. 8A, FIG. 8B) of synTF (induced by ATc, 2-500 ng/mL) and clamp (EST, 0.05-12.5 nM), respectively. Adjusting molecular features of assembly (Kt, Kp, nc) tunes overall circuit transfer function (right). (FIG. 1E) Parameterization of thermodynamic complex assembly model. Dose response data for circuit configurations with various Kt, Kp, nc values were fit to a thermodynamic model (see e.g., FIG. 10, FIG. 11); regression plot showing residual from fit are shown at the right. MAE, mean absolute error.
Thus, synTF binding cooperativity is enhanced by the clamp and scales in magnitude with complex size.
as §2, with “For complex assembly experiments (FIG. 1C), indicated concentrations of MBP-ZF43-8 harboring a VSKESLV* ligand (SEQ ID NO: 120) (see e.g., FIG. 5A-FIG. 5B, FIG. 7A-FIG. 7B) were titrated against 5 μM concentrations of clamp.” left out
Species used in the binding assay are described in FIG. 5A and FIG. 5B, and descriptions for protein purification and the binding assay are described elsewhere herein. […]

T2 sequence (Q96RT1 with tags, fused parts or gaps V1340R): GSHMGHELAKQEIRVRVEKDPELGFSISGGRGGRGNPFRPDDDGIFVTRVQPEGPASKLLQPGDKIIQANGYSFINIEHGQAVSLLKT

A word on the Kd: it is a measure of binding affinity in units of concentration. As to IRETIV, the Kd amounted to 0.88 µM at syntrophin PDZ domain and 3.46 µM at erbin PDZ domain.

Consider IRETIL, for which, on syntrophin PDZ domain, the Kd is 0.18 µM. Besides, the “Erb Kd (μM), PDZ affinity (Kp)” value on erbin PDZ domain was “nb”.

Consider IRWTIV, for which the Kd came to 0.49 µM on syntrophin PDZ domain and 1.73 µM at erbin PDZ domain.

With VKEAAA, the “Syn Kd (μM), PDZ affinity (Kp)” value at syntrophin PDZ domain is “nb”. The “Erb Kd (μM), PDZ affinity (Kp)” value at erbin PDZ domain is on record as “nb”.

Take WLKTWV: at syntrophin PDZ domain, the “Syn Kd (μM), PDZ affinity (Kp)” value is on record as “nb”. Further, the Kd at erbin PDZ domain was 0.33 µM.

As to VKEALV, the Kd on syntrophin PDZ domain amounted to 27.3 µM. Moreover, the “Erb Kd (μM), PDZ affinity (Kp)” value at erbin PDZ domain was “nb”.

With PVDSWV, the values for the Kd at syntrophin PDZ domain and on erbin PDZ domain were 1.57 µM and 0.42 µM, respectively.

In the case of VKESLV, the values for the Kd on syntrophin PDZ domain and on erbin PDZ domain were 1.97 µM and 5.71 µM, respectively.

As for IRETII, the Kd at syntrophin PDZ domain came out at 0.062 µM. Besides, the “Erb Kd (μM), PDZ affinity (Kp)” value on erbin PDZ domain is recorded as “nb”.

As to WLVTWV, the “Syn Kd (μM), PDZ affinity (Kp)” value at syntrophin PDZ domain was “nb”. The Kd at erbin PDZ domain is 0.1 µM.

Regarding HLETFF, at syntrophin PDZ domain, the Kd was found to be 43.2 µM. In addition, the “Erb Kd (μM), PDZ affinity (Kp)” value at erbin PDZ domain is listed as “nb”.

B1: clamp: SEQ ID NO: 144, 2-unit clamp of α-syntrophin PDZ domains with 3x FLAG tag and NLS (protein)
chain: MDYKDHDGDYKDHDIDYKDDDDKMAPKKKRKVVELQRRRVTVRKADAGGLGISIKGGRENKMPILISKIFKGLAADQTEALFVGDAILSVNGEDLSSATHDEAVQALKKTGKEVVLEVKYMKEVSPYFKGSGGSSGSGPGSSGGSGPGSGSSGGSGSGPGSGGSSGPGSETELVELQRRRVTVRKADAGGLGISIKGGRENKMPILISKIFKGLAADQTEALFVGDAILSVNGEDLSSATHDEAVQALKKTGKEVVLEVKYMKEVSPYFKG
Take B1: in experiment [1], the mCherry reporter expression entry is “enhancement of reporter activation”.

B2: synTF: MBP-ZF43-8 fusion harboring a VKESLV-type syntrophin PDZ ligand, titrated against DBM oligo probe (protein)
chain: GEAPFQCRICMANFSRQDRLDRHTRTHTGEKPFQCRICMANFSQKEHLAGHLRTHTGEKPFQCRICMANFSRRDNLNRHLKTHLRGSGSGVKESLV
modifications: left off: large carriers
notes: MBP-ZF43-8 fusion harboring a VKESLV-type syntrophin PDZ ligand, titrated against DBM oligo probe
What is called EC50 is the concentration giving half of the maximal effect. As to B2, the “cooperativity (nH)” value was found to be 1.81 in experiment [2] (nc=2 probe, two-PDZ clamp added (2 μM)); 1.07 in experiment [2] (nc=2 probe, without clamp); 2.55 in experiment [2] (nc=3 probe and three-repeat clamp). Also, in experiment [2] (nc=2 probe, without clamp, read-out: affinity of synTFs for the probe (EC50)), the EC50 was determined as 0.21 µM.

For the origin of these results see US11781149B2, “Systems and methods for control of gene expression” (TRUSTEES OF BOSTON UNIVERSITY, priority 2018, dated 2023).
